SMILES strings stand for the structures.

Test [1] has as its target human Farnesoid X receptor ligand-binding domain/Gal4 DNA binding domain chimera (Homo sapiens (Human), UniProt Q96RI1). The test is described as follows: Cell-based assay of FXR activation (FXR-UAS-bla HEK 293T beta-lactamase reporter). As to conditions: cellular FXR beta-lactamase reporter assay; for Emax: HEK-293T, extent of activation relative to GW4064, read-out: % Efficacy; for EC50: FXR-UAS-bla HEK 293T cells, 16 h, pEC50 = -log EC50. The procedure, abridged: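 HEK 293T cells stably expressing a Gal4-fused human FXR LBD and a UAS-driven beta-lactamase reporter were incubated with serially diluted compounds for 16 h at 37 °C in phenol red-free DMEM with 2% charcoal-stripped FBS. CCF4 FRET read-out: excitation 409 nm, emission 447 nm. pEC50 comes from a 3-parameter logistic fit, and efficacy is given as % of GW4064.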
Background: In a reporter assay the amount or activity of a reporter protein is the signal.

Test [2] addresses ligand binding domain of human FXR (Homo sapiens (Human), UniProt Q96RI1). The test is described as follows: FXR ligand binding assay (LanthaScreen TR-FRET, SRC2-2 peptide recruitment). The conditions noted are these: for pEC50: -log EC50, concentration required to produce 50% activation; for Emax: extent of activation relative to GW4064, read-out: % Efficacy.

Sequence of ligand binding domain of human FXR (Q96RI1 262-486): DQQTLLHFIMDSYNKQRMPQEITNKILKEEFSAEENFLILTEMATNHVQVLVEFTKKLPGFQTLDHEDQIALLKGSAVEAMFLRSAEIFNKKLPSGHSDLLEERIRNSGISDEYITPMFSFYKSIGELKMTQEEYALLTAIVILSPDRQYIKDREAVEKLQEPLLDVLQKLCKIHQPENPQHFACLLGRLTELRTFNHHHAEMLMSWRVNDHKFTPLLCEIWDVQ
Sequence of human Farnesoid X receptor ligand-binding domain/Gal4 DNA binding domain chimera (Q96RI1 262-486, change not shown): as the sequence (Q96RI1 262-486) above
Sequence of human Farnesoid X receptor ligand-binding domain/Gal4 DNA binding domain chimera (P04386 1-147 partner): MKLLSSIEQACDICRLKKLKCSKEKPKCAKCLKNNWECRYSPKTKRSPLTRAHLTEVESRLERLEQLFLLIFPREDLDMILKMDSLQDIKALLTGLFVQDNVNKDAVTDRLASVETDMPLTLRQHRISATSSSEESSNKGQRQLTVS

In the case of `O=C(NS(=O)(=O)C1CCOCC1)c1ccc(N2C(=O)[C@@H]3C[C@H]2C[C@H]3OCc2c(-c3c(Cl)cccc3Cl)noc2C2CC2)cc1F` [Compound I-332, 4-((1S,4R,5R)-5-((5-cyclopropyl-3-(2,6-dichlorophenyl)isoxazol-4-yl)methoxy)-3-oxo-2-azabicyclo[2.2.1]heptan-2-yl)-2-fluoro-N-((tetrahydro-2H-pyran-4-yl)sulfonyl)benzamide], in test [1], the Emax worked out at 100% and it took 0.316 nM to reach a half-maximal effect (EC50). In test [2], the pEC50 (commonly the negative decadic logarithm of the EC50, by convention in mol/L) was found to be 8.8 and the Emax turned out to be 150%.

On to `O=C(NS(=O)(=O)CC1CCOCC1)c1ccc(N2C(=O)[C@@H]3C[C@H]2C[C@H]3OCc2c(-c3c(Cl)cccc3Cl)noc2C2CC2)cc1F` [Compound I-333, 4-((1S,4R,5R)-5-((5-cyclopropyl-3-(2,6-dichlorophenyl)isoxazol-4-yl)methoxy)-3-oxo-2-azabicyclo[2.2.1]heptan-2-yl)-2-fluoro-N-(((tetrahydro-2H-pyran-4-yl)methyl)sulfonyl)benzamide], for which, in test [1], the Emax was found to be 112% and the midpoint of the response, the EC50, lay at 0.501 nM. In test [2], the negative-log EC50 (pEC50) was 8.8 and the Emax is 158%.

As for `O=C(NS(=O)(=O)C1CCOC1)c1ccc(N2C(=O)[C@@H]3C[C@H]2C[C@H]3OCc2c(-c3c(Cl)cccc3Cl)noc2C2CC2)cc1F` (stereo partly drawn) [Compound I-334, 4-((1S,4R,5R)-5-((5-cyclopropyl-3-(2,6-dichlorophenyl)isoxazol-4-yl)methoxy)-3-oxo-2-azabicyclo[2.2.1]heptan-2-yl)-2-fluoro-N-((tetrahydrofuran-3-yl)sulfonyl)benzamide], in test [1], the Emax turned out to be 104% and the EC50 (usually the midpoint of the concentration-response curve) is 1 nM. In addition, in test [2], the pEC50 is 9 and the Emax was 180%.

`O=C(NS(=O)(=O)CC1CCOC1)c1ccc(N2C(=O)[C@@H]3C[C@H]2C[C@H]3OCc2c(-c3c(Cl)cccc3Cl)noc2C2CC2)cc1F` (stereo partly drawn) [Compound I-335, 4-((1S,4R,5R)-5-((5-cyclopropyl-3-(2,6-dichlorophenyl)isoxazol-4-yl)methoxy)-3-oxo-2-azabicyclo[2.2.1]heptan-2-yl)-2-fluoro-N-(((tetrahydrofuran-3-yl)methyl)sulfonyl)benzamide]: in test [1], the Emax amounted to 108% and the EC50 was 1 nM. Also, in test [2], the negative-log EC50 (pEC50) was 8.8 and the Emax turned out to be 172%.

`O=C(NS(=O)(=O)CCC1CCOC1)c1ccc(N2C(=O)[C@@H]3C[C@H]2C[C@H]3OCc2c(-c3c(Cl)cccc3Cl)noc2C2CC2)cc1F` (stereo partly drawn) [Compound I-336, 4-((1S,4R,5R)-5-((5-cyclopropyl-3-(2,6-dichlorophenyl)isoxazol-4-yl)methoxy)-3-oxo-2-azabicyclo[2.2.1]heptan-2-yl)-2-fluoro-N-((2-(tetrahydrofuran-3-yl)ethyl)sulfonyl)benzamide]: in test [1], the Emax amounted to 125% and a half-maximal effect (EC50) was put at 2.51 nM. In test [2], the pEC50 stood at 8.6 and the Emax came out at 182%.

Turning to `O=C(NS(=O)(=O)C1CC1)c1ccc(N2C(=O)[C@@H]3C[C@H]2C[C@H]3OCc2c(-c3c(Cl)cccc3Cl)noc2C2CC2)cc1` [Compound I-337, 4-((1S,4R,5R)-5-((5-cyclopropyl-3-(2,6-dichlorophenyl)isoxazol-4-yl)methoxy)-3-oxo-2-azabicyclo[2.2.1]heptan-2-yl)-N-(cyclopropylsulfonyl)benzamide], in test [1], the Emax was 110% and the EC50 was 2 nM. Besides, in test [2], the pEC50 was 8.6 and the Emax stood at 174%.

As to `O=C(NS(=O)(=O)C1CCOCC1)c1ccc(N2C(=O)[C@@H]3C[C@H]2C[C@H]3OCc2c(-c3c(Cl)cccc3Cl)noc2C2CC2)cc1` [Compound I-338], in test [1], the Emax came to 106% and it took 15.8 nM to reach a half-maximal effect (EC50). Also, in test [2], the pEC50 is reported as 8.9 and the Emax stood at 158%.

`O=C(NS(=O)(=O)CC1CCOCC1)c1ccc(N2C(=O)[C@@H]3C[C@H]2C[C@H]3OCc2c(-c3c(Cl)cccc3Cl)noc2C2CC2)cc1` [Compound I-339, 4-((1S,4R,5R)-5-((5-cyclopropyl-3-(2,6-dichlorophenyl)isoxazol-4-yl)methoxy)-3-oxo-2-azabicyclo[2.2.1]heptan-2-yl)-N-(((tetrahydro-2H-pyran-4-yl)methyl)sulfonyl)benzamide]: in test [1], the Emax was 118% and a half-maximal effect (EC50) was put at 5.01 nM. In test [2], the negative-log EC50 (pEC50) was 8.6 and the Emax worked out at 198%.

For `O=C(NS(=O)(=O)C1CCOC1)c1ccc(N2C(=O)[C@@H]3C[C@H]2C[C@H]3OCc2c(-c3c(Cl)cccc3Cl)noc2C2CC2)cc1` (stereo partly drawn) [Compound I-340, 4-((1S,4R,5R)-5-((5-cyclopropyl-3-(2,6-dichlorophenyl)isoxazol-4-yl)methoxy)-3-oxo-2-azabicyclo[2.2.1]heptan-2-yl)-N-((tetrahydrofuran-3-yl)sulfonyl)benzamide], in test [1], the Emax was found to be 110% and a half-maximal effect (EC50) was put at 7.94 nM. For the same molecule, in test [2], the pEC50 amounted to 8.8 and the Emax is 182%.

In the case of `O=C(NS(=O)(=O)CC1CCOC1)c1ccc(N2C(=O)[C@@H]3C[C@H]2C[C@H]3OCc2c(-c3c(Cl)cccc3Cl)noc2C2CC2)cc1` (stereo partly drawn) [Compound I-341, 4-((1S,4R,5R)-5-((5-cyclopropyl-3-(2,6-dichlorophenyl)isoxazol-4-yl)methoxy)-3-oxo-2-azabicyclo[2.2.1]heptan-2-yl)-N-(((tetrahydrofuran-3-yl)methyl)sulfonyl)benzamide], in test [1], the Emax was determined as 109% and the midpoint of the response, the EC50, lay at 10 nM. Also, in test [2], the pEC50 came out at 8.7 and the Emax was determined as 164%.

As for `O=C(NS(=O)(=O)CCC1CCOC1)c1ccc(N2C(=O)[C@@H]3C[C@H]2C[C@H]3OCc2c(-c3c(Cl)cccc3Cl)noc2C2CC2)cc1` (stereo partly drawn) [Compound I-342, 4-((1S,4R,5R)-5-((5-cyclopropyl-3-(2,6-dichlorophenyl)isoxazol-4-yl)methoxy)-3-oxo-2-azabicyclo[2.2.1]heptan-2-yl)-N-((2-(tetrahydrofuran-3-yl)ethyl)sulfonyl)benzamide], in test [1], the Emax amounted to 125% and a half-maximal response (EC50) required 31.6 nM. Further, in test [2], the pEC50 is on record as 8.6 and the Emax turned out to be 139%.

On to `O=C(NS(=O)(=O)C1CCCC1)c1ccc(N2C(=O)[C@@H]3C[C@H]2C[C@H]3OCc2c(-c3c(Cl)cccc3Cl)noc2C2CC2)cc1` [Compound I-343, N-(cyclopentylsulfonyl)-4-((1S,4R,5R)-5-((5-cyclopropyl-3-(2,6-dichlorophenyl)isoxazol-4-yl)methoxy)-3-oxo-2-azabicyclo[2.2.1]heptan-2-yl)benzamide], for which, in test [1], the Emax amounted to 105% and the EC50 was 0.1 nM. For the same molecule, in test [2], the pEC50 is recorded as 9 and the Emax worked out at 176%.

`O=C(NS(=O)(=O)[C@@H]1CCC[C@H]1O)c1ccc(N2C(=O)[C@@H]3C[C@H]2C[C@H]3OCc2c(-c3c(Cl)cccc3Cl)noc2C2CC2)cc1` [Compound I-344, 4-[(1S,4R,5R)-5-{[5-cyclopropyl-3-(2,6-dichlorophenyl)-1,2-oxazol-4-yl]methoxy}-3-oxo-2-azabicyclo[2.2.1]heptan-2-yl]-N-{[(1R,2R)-2-hydroxycyclopentyl]sulfonyl}benzamide]: in test [1], the Emax came to 132% and the EC50 is 1.58 nM. Moreover, in test [2], the pEC50 turned out to be 8.4 and the Emax worked out at 203%.

With `NS(=O)(=O)[C@@H]1CCC[C@H]1OC(=O)c1ccc(N2C(=O)[C@@H]3C[C@H]2C[C@H]3OCc2c(-c3c(Cl)cccc3Cl)noc2C2CC2)cc1` [Compound I-345, (1R,2R)-2-sulfamoylcyclopentyl 4-[(1S,4R,5R)-5-{[5-cyclopropyl-3-(2,6-dichlorophenyl)-1,2-oxazol-4-yl]methoxy}-3-oxo-2-azabicyclo[2.2.1]heptan-2-yl]benzoate], in test [1], the Emax worked out at 121% and the EC50 is 3.98 nM. In test [2], the pEC50 is 8.6 and the Emax was determined as 203%.

In the case of `O=C(NS(=O)(=O)[C@@H]1CCC[C@H]1O)c1ccc(N2C(=O)[C@@H]3C[C@H]2C[C@H]3OCc2c(-c3c(Cl)cccc3Cl)noc2C2CC2)cc1F` [Compound I-346, 4-[(1S,4R,5R)-5-{[5-cyclopropyl-3-(2,6-dichlorophenyl)-1,2-oxazol-4-yl]methoxy}-3-oxo-2-azabicyclo[2.2.1]heptan-2-yl]-2-fluoro-N-{[(1R,2R)-2-hydroxycyclopentyl]sulfonyl}benzamide], in test [1], the Emax worked out at 133% and the EC50 was 0.794 nM. For the same molecule, in test [2], the pEC50 is recorded as 8.2 and the Emax amounted to 188%.

On to `NS(=O)(=O)[C@@H]1CCC[C@H]1OC(=O)c1ccc(N2C(=O)[C@@H]3C[C@H]2C[C@H]3OCc2c(-c3c(Cl)cccc3Cl)noc2C2CC2)cc1F` [Compound I-347, (1R,2R)-2-sulfamoylcyclopentyl 4-[(1S,4R,5R)-5-{[5-cyclopropyl-3-(2,6-dichlorophenyl)-1,2-oxazol-4-yl]methoxy}-3-oxo-2-azabicyclo[2.2.1]heptan-2-yl]-2-fluorobenzoate], for which, in test [1], the Emax was 135% and it took 1 nM to reach a half-maximal effect (EC50). Moreover, in test [2], the negative logarithm of the EC50 (pEC50) amounted to 8.5 and the Emax came to 203%.

Turning to `O=C(O)CNC(=O)c1ccc(N2C(=O)[C@@H]3C[C@H]2C[C@H]3OCc2c(-c3c(Cl)cccc3Cl)noc2C2CC2)cc1` [Compound I-358, 2-({4-[(1S,4R,5R)-5-{[5-cyclopropyl-3-(2,6-dichlorophenyl)-1,2-oxazol-4-yl]methoxy}-3-oxo-2-azabicyclo[2.2.1]heptan-2-yl]phenyl}formamido)acetic Acid], in test [1], the Emax is 124% and a half-maximal response (EC50) required 631 nM. Moreover, in test [2], the pEC50 was 8 and the Emax stood at 155%.

For the origin of these results see patent publication US10793568B2, “Hormone receptor modulators for treating metabolic conditions and disorders” (ARDELYX, INC., priority 2016, dated 2020).
